Values belong to the compound of their own block, whether it stands above or below them. Active and inactive are the calls of the source.
Experiments:
Cytochrome P450 2C9 = Cytochrome P450 2C9 (Homo sapiens, UniProt P11712)
HEK293 [1] = experiment: inhibitors of LMP1-driven NF-kB reporter, dose response, cell-based, HEK293, luciferase, cherry-pick (AID 588343); type: functional; conditions: Homo sapiens
[2] = inhibitors of intracellular T. cruzi replication, confirmation, NIH3T3 host cells, beta-gal luminescence (AID 2044); type: functional, cell-based;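 note: intracellular parasites grown in NIH/3T3 mouse fibroblasts as host cells; luminescent beta-galactosidase reporter signal from transgenic T. cruzi replicating inside host cells; inhibitors lower the luminescence signal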
[3] = cytotoxicity toward NIH3T3 fibroblasts, dose response, counter-screen, cell-based, ATP luminescence, mouse fibroblasts (AID 2010); type: functional;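 note: cells exposed to compound for about 90 hours before reading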
Paired box protein Pax-8 = Paired box protein Pax-8 (Homo sapiens, UniProt Q06710); experiment: inhibitors of PAX8-driven TPO luciferase reporter, dose response, RMG-I cells, cherry-pick (AID 687027); type: functional, cell-based;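 note: luciferase reporter driven by Pax8 target thyroperoxidase promoter measured by SteadyGlo luminescence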
Chain of Paired box protein Pax-8 (Q06710 whole entry): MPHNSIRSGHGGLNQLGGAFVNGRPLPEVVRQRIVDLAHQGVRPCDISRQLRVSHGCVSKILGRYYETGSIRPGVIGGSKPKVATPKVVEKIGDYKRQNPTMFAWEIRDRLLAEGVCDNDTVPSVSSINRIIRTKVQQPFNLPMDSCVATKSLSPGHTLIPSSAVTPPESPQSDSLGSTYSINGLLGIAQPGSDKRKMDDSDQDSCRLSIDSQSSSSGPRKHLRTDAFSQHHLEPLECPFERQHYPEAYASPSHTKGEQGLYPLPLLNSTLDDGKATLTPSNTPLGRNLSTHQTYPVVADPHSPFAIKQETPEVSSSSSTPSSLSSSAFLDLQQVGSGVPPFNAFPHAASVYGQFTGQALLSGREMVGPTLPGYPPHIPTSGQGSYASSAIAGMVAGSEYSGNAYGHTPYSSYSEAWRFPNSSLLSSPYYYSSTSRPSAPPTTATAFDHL

[4] = biological target: T1, Heat shock factor protein 1 (Mus musculus, UniProt P38532); experiment: HSF1 potentiators in luciferase reporter cells, confirmation, cell-based, NIH3T3, luminescence, dose retest (AID 435004); type: functional;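 note: stress induced by proteasome inhibitor MG132 added 30 min after compound; luciferase reporter driven by HSF1 response element in NIH3T3 cells; actives raise luminescence as potentiators of the MG132 stress response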
T1 sequence (P38532 whole entry): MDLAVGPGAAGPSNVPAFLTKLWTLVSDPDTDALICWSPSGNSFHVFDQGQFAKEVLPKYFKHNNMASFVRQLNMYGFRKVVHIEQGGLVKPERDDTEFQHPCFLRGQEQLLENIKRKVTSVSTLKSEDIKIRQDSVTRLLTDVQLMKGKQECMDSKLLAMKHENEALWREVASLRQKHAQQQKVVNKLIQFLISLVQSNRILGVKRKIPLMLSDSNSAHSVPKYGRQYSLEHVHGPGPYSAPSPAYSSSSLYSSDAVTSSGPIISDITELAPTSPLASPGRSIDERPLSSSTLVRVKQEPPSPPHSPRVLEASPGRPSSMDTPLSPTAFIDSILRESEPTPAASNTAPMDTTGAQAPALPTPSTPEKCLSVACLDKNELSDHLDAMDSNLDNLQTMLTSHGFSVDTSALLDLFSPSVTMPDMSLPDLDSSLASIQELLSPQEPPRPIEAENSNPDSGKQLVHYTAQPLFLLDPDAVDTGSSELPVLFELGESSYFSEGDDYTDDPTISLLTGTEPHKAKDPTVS

HEK293 [5] = experiment: cells; type: functional, cell-based; conditions: Homo sapiens
HEK293 [6] = experiment: NOD1 signaling inhibitors, primary screen, cell-based, luminescence, uHTS (AID 1578); type: functional; conditions: Homo sapiens
[7] = Luminescence Cell-Based Dose Retest to Confirm Inhibitors of Cancer Stem Cells. [Related pubchem assays (depositor defined):AID2717, AID2721]; type: functional, Homo sapiens; conditions: Homo sapiens
[8] = biological target: Nucleotide-binding oligomerization domain-containing protein 2 (Homo sapiens, UniProt Q9HC29); experiment: NOD2 signaling inhibitors, cell-based, luminescence, uHTS, HEK293 (AID 1566); type: functional
Chain of Nucleotide-binding oligomerization domain-containing protein 2 (Q9HC29 whole entry, the tested form may be a part): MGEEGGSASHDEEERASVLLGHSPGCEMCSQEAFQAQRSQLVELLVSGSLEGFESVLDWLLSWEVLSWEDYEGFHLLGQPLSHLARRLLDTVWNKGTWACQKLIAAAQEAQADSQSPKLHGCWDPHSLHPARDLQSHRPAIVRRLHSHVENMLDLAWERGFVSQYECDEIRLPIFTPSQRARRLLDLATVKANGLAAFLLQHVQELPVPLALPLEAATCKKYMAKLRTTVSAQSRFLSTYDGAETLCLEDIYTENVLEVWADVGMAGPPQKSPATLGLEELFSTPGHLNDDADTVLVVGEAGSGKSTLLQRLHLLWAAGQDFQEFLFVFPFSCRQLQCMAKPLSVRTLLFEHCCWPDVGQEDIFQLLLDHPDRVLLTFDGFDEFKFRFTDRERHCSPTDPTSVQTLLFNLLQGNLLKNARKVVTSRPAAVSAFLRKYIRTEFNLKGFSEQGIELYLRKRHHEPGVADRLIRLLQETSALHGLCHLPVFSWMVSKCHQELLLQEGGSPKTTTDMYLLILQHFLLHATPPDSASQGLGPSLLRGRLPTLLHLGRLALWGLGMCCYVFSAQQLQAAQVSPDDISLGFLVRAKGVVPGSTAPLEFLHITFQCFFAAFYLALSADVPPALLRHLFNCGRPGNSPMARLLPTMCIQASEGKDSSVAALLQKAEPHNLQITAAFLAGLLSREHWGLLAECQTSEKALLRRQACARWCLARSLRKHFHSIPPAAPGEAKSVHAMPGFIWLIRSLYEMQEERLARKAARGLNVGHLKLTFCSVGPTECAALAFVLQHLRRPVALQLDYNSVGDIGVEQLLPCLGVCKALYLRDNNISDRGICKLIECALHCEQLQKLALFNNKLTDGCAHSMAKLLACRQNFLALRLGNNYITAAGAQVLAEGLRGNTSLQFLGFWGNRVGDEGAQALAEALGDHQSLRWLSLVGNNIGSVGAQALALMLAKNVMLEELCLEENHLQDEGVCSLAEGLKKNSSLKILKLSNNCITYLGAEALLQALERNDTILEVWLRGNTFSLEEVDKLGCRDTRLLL

HEK293 [9] = experiment: NOD2 signaling inhibitors in MDP-stimulated cells, cell-based, uHTS, luminescence (AID 2001); type: functional; conditions: Homo sapiens
HEK293 [10] = experiment: cells; type: functional, cell-based; conditions: Homo sapiens; remark: listed apart in the source
HEK293 [11] = experiment: cells; type: functional, cell-based; conditions: Homo sapiens; remark: listed apart in the source
Protein skinhead-1 = biological target: T2, Protein skinhead-1 (Caenorhabditis elegans, UniProt P34707); type: functional
T2 sequence (P34707 whole entry): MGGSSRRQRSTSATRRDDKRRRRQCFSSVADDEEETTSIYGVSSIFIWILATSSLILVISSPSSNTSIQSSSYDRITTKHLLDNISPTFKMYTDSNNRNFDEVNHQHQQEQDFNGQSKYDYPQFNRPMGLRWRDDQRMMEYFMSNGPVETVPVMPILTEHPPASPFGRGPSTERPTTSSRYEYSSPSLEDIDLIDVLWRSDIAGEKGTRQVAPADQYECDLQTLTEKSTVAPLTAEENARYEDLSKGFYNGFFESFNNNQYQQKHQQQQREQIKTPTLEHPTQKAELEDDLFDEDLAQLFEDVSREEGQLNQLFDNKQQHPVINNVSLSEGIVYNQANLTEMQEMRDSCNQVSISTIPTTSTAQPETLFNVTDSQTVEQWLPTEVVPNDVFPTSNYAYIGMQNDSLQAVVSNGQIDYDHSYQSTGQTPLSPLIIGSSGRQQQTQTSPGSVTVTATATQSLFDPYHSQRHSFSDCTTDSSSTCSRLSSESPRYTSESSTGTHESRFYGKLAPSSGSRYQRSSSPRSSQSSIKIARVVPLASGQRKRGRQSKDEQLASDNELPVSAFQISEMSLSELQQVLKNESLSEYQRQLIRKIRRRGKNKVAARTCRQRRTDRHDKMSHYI

[12] = biological target: G-protein coupled receptor 55 (Homo sapiens, UniProt Q9Y2T6); experiment: GPR55 antagonists blocking LPI-driven arrestin recruitment, primary screen, imaging, U2OS, beta-arrestin-GFP, LPI agonist (AID 2013); type: functional;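 note: antagonist potency measured as reduced agonist-driven arrestin aggregation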
Chain of G-protein coupled receptor 55 (Q9Y2T6 whole entry): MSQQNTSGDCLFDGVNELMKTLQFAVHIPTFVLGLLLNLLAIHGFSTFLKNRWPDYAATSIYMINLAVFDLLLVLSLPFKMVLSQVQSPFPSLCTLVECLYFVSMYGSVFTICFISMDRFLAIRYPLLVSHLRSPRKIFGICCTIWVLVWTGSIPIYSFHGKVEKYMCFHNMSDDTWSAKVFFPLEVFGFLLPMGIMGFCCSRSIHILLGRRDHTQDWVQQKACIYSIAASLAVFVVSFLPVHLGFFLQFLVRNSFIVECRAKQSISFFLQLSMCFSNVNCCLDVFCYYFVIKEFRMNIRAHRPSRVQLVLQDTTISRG

[13] = biological target: T3, Calpain-2 catalytic subunit (Sus scrofa, UniProt P43367); experiment: pig calpain II inhibitor potency, dose response, biochemical, fluorogenic peptide substrate (AID 1420); type: functional
T3 sequence (P43367 whole entry): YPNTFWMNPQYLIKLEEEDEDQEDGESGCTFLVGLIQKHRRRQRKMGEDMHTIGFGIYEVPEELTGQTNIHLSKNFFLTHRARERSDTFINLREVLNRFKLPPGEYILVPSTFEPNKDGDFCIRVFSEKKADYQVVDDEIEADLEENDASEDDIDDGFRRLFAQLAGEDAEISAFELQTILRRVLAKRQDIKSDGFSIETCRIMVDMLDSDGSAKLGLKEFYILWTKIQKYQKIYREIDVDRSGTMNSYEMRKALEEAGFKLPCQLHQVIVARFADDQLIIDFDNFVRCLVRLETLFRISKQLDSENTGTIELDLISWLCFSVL

[14] = biological target: Heat shock protein HSP 90-alpha (Homo sapiens, UniProt P07900); type: functional, organism-based

Chain of Cytochrome P450 2C9 (P11712 whole entry): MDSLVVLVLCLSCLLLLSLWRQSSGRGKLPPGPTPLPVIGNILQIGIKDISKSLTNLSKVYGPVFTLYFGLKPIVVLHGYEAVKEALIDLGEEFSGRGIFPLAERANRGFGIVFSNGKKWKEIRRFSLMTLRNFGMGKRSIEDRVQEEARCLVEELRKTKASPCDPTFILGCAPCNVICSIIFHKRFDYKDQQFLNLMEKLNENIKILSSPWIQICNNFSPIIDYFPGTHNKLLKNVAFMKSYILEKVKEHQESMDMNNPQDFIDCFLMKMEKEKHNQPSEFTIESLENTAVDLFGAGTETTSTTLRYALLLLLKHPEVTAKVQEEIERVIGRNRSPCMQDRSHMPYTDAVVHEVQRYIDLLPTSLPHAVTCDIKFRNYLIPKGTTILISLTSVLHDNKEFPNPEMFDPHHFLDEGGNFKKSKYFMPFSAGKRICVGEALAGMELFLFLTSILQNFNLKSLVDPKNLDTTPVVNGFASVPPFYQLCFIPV

AC50 (Cytochrome P450 2C9): inconclusive
Compound: Cc1ccc(CNC(=O)C2CC(c3ccccc3[N+](=O)[O-])=NO2)o1 (stereo not given)

Compound: O=[N+]([O-])c1ccc(N2CCN(Cc3cccc([N+](=O)[O-])c3)CC2)cc1
AC50 (HEK293 [1]): 52.6 µM (active)

Compound: O=C(Nc1ccc(Cl)c(Cl)c1)Nc1nc(-c2ccccc2)cs1
AC50 (HEK293 [1]): 24.9 µM (active)
EC50 [2]: 1.52 µM (active)
EC50 [3]: > 60 µM (not active)

Compound: Cc1cc(Sc2nnc(N)s2)c2ccccc2n1
AC50 (Paired box protein Pax-8): 4.58 µM (active)
AC50 (HEK293 [1]): 3.03 µM (active)
EC50 [4]: 14.6 µM (active)

Compound: Cc1ccc(C(=O)NC(=C(Cl)Cl)S(=O)(=O)c2ccc(C)cc2)cc1
IC50 (HEK293 [5]): > 20 µM (inactive)
EC50 (HEK293 [6]): 2.46 µM (active)
AC50 [7]: 4.39 µM (active)
EC50 [8]: 14.6 µM (active)
IC50 (HEK293 [9]): 5.55 µM (active)
IC50 (HEK293 [10]): > 20 µM (inactive)
IC50 (HEK293 [11]): 6.28 µM (active)

IC50 (Protein skinhead-1): > 100 µM (inactive)
IC50 [12]: 3.44 µM (active)
Compound: CN1/C(=C/C(=O)CSc2ccccc2C(=O)O)C(C)(C)c2ccccc21

IC50 [13]: > 50 µM (not active)
AC50 [14]: 4.18 µM (active)
Compound: Cc1ccc(C(=O)N2CCN(c3ccccc3Cl)CC2)cc1[N+](=O)[O-]

Compound: Cc1ccc(NC(=O)CSc2ncnc3ccccc23)cc1S(=O)(=O)N1CCCCC1
IC50 (HEK293 [5]): > 20 µM (inactive)
EC50 (HEK293 [6]): 4.43 µM (active)
EC50 [8]: 4.73 µM (active)
IC50 (HEK293 [9]): 1.73 µM (active)
IC50 (HEK293 [10]): 6.83 µM (active)
IC50 (HEK293 [11]): 1.81 µM (active)

From ChEMBL document CHEMBL1201862, “PubChem BioAssay data set” (2004)
